Results taken from patent publication US12565640B2, “Method for inducing ureteric bud-like tissue” (Kyoto University, priority 2017, dated 2026).
Entries after “also recorded” stand apart in the source; their conditions may differ.

Assays:
[1] = tested on: anterior primitive streak (APS) cells; experiment: Induction of anterior intermediate mesoderm cells from hiPSCs via anterior primitive streak (immunostaining, flow cytometry); type: cell-based, human; conditions: for effect on induction efficiency / differentiation of OSR1^+GATA3^+ cells: added to the anterior intermediate mesoderm induction stage, 10 ng/ml BMP4 or 0.1 μM LDN193189
Experimental: Undifferentiated hiPSCs/ESCs were plated at a density of 2.5×10^4 cells/cm^2 onto tissue culture plates in maintenance medium with 10 μM Y-27632 and iMatrix-511 silk. After 24 h, the cells were washed with PBS and treated with Essential 6 medium (Thermo Fisher Scientific) containing 100 ng/ml Activin A (R&D Systems) and 3 μM CHIR99021 (Stem RD) with or without 10 ng/ml bone morphogenetic protein (BMP)4 (PeproTech) for 24 h.
To induce anterior intermediate mesoderm, the anterior primitive streak cells were treated with 200 ng/ml fibroblast growth factor (FGF) 8 (Peprotech), 0.1 μM 4-[(E)-2-(5,6,7,8-Tetrahydro-5,5,8,8-tetramethyl-2-naphthalenyl)-1-propenyl]-benzoic acid (TTNPB; Santa Cruz Biotechnology), 1 μM A83-01 and 0.1 μM LDN193189 for 2 days. Then, the cells were replated onto Matrigel-coated plates at a density of 1×10^5 cells/cm^2 in the anterior intermediate mesoderm induction medium with 10 μM Y-27632 and incubated for an additional 24 h.
(§1) The cells were fixed with 4% PFA/PBS for 20 min at 4° C. After washing with PBS, the cells were blocked with 1% normal donkey serum (Millipore) and 3% bovine serum albumin (BSA; Nacalai Tesque)/PBST (PBS/0.25% Triton X-100) for 1 h at room temperature. Primary antibodies were diluted in blocking solution and incubated with samples overnight at 4° C. Secondary antibodies were incubated for 1 h at room temperature.
After dissociation with Accutase, the cells were fixed, permeabilized and blocked with a BD Cytofix/Cytoperm Kit (Becton Dickinson). Then the cells were incubated with primary antibodies diluted at 1:100 in blocking solution for 30 min at room temperature. After washing twice, the cells were incubated with secondary antibodies diluted at 1:500 in blocking solution for 30 min at room temperature. The cells were then analyzed using FACS AriaII cell sorter (Becton Dickinson).

[2] = tested on: anterior intermediate mesoderm cells; experiment: Induction of Wolffian duct cells from anterior intermediate mesoderm cells (immunostaining, cell counts); type: cell-based, human; conditions: for differentiation of Wolffian duct cells (OSR1^−GATA3^+PAX2^+) from anterior intermediate mesoderm cells / Total cell numbers after treatment: 3D45 cells; for Total cell numbers after treatment: FIG. 2E, mean±s.d., n=3, before treatment 1.44±0.29; for number of GATA3^+ (Wolffian duct) cells: supplementation during Wolffian duct induction
Experimental: Anterior intermediate mesoderm cells were treated with Essential 6 medium containing 1 μM CHIR99021, 0.1 μM LDN193189, 200 ng/ml FGF8 and 100 ng/ml glial cell line-derived neurotrophic factor (GDNF; R&D Systems) with or without 0.1 μM TTNPB for 2 days to enhance Wolffian duct leading edge cell induction. Then, the cells were dissociated into single cells by gentle pipetting after treatment with Accutase (Innovative Cell Technologies). The cells were seeded onto low-attachment 96-well plates (Sumitomo Bakelite) at a density of 1×10^4 cells/well in Essential 6 medium with 100 ng/ml GDNF, 200 ng/ml FGF1 (R&D Systems), 0.1 μM TTNPB, 3 μM CHIR99021 and 10 μM Thiazovivin (Santa Cruz Biotechnology) and incubated for 2 days to induce mature Wolffian duct aggregates.
as §1

[3] = added to anterior intermediate mesoderm cells, immunostaining

With `Cc1cccc(-c2nn(C(=S)Nc3ccccc3)cc2-c2ccnc3ccccc23)n1` [A83-01, 3-(6-Methyl-2-pyridinyl)-N-phenyl-4-(4-quinolinyl)-1H-pyrazole-1-carbothioamide] as the molecule, how does the “differentiation of SOX17^+ definitive endoderm cells” value ([1]; 1 μM A83-01 added to FGF8 and TTNPB, immunostaining) read?
The value was “diminished; also recorded: decreases the differentiation into definitive endoderm cells”.

What about the “induction of anterior intermediate mesoderm-like cells (OSR1, GATA3 immunostaining)” value ([1]; treatment of APS cells) of the same molecule?
The value was “without inhibiting the induction of anterior intermediate mesoderm-like cells”.

For `Cc1ccc(C2=CCC(C)(C)c3ccc(C#Cc4ccc(C(=O)O)cc4)cc32)cc1` [AGN193109], which “RET expression (Wolffian duct cell marker)” value [2, 3] is on record?
The value was “diminished RET expression; also recorded: decreased the expression of RET”.

How did the “differentiation of Wolffian duct cells (OSR1^−GATA3^+PAX2^+) from anterior intermediate mesoderm cells” value (shortened to “differentiation of Wolffian duct cells”) ([2]; immunostaining) turn out when `Cc1c[nH]c(-c2cnc(NCCNc3ccc(C#N)cn3)nc2-c2ccc(Cl)cc2Cl)n1` [CHIR99021, 6-[2-[4-(2,4-Dichlorophenyl)-5-(4-methyl-1H-imidazol-2-yl)pyrimidin-2-ylamino]ethylamino]pyridine-3-carbonitrile] was run?
The value was “enhanced OSR1^−GATA3^+PAX2^− cell differentiation; also recorded: enhanced the differentiation”.

What does the source list for `O=C(Nc1cccc2cccnc12)c1ccc(N2C(=O)[C@@H]3[C@H](C2=O)[C@@H]2C=C[C@H]3C2)cc1` [IWR-1]?
GATA3 and PAX2 expressions [2, 3]: diminished GATA3 and PAX2 expressions; OSR1 expression [2, 3]: prolonged OSR1 expression; differentiation of Wolffian duct cells (OSR1^−GATA3^+PAX2^+) from anterior intermediate mesoderm cells ([2]; immunostaining): inhibited the Wolffian duct induction

With `c1ccc2c(-c3cnn4cc(-c5ccc(N6CCNCC6)cc5)cnc34)ccnc2c1` [LDN193189, 4-(6-(4-(piperazin-1-yl)phenyl)pyrazolo[1,5-a]pyrimidin-3-yl)quinoline] as the molecule, how does the “effect on induction efficiency / differentiation of OSR1^+GATA3^+ cells” value [1] read?
Its value is “did not change the induction efficiency”.

And the “differentiation of Wolffian duct cells” value ([2]; immunostaining)?
The value was “enhanced the Wolffian duct induction”.

How did the “differentiation of Wolffian duct cells” value ([2]; immunostaining) turn out when `C/C(=C\c1ccc(C(=O)O)cc1)c1ccc2c(c1)C(C)(C)CCC2(C)C` [TTNPB, 4-[(E)-2-(5,6,7,8-Tetrahydro-5,5,8,8-tetramethyl-2-naphthalenyl)-1-propenyl]-benzoic acid] was run?
Its value is “early Wolffian duct cells were stably generated”.

B1: FGF8: fibroblast growth factor (FGF) 8 (Peprotech) (protein, UniProt P55075 23-233, looked up)
Fibroblast growth factor 8: QEGPGRGPALGRELASLFRAGREPQGVSQQHVREQSLVTDQLSRRLIRTYQLYSRTSGKHVQVLANKRINAMAEDGDPFAKLIVETDTFGSRVRVRGAETGLYICMNKKGKLIAKSNGKGKDCVFTEIVLENNYTALQNAKYEGWYMAFTRKGRPRKGSKTRQHQREVHFMKRLPRGHHTTEQSLRFEFLNYPPFTRSLRGSQRTWAPEPR
How did the “Total cell numbers after treatment” value [2] turn out when B1 was run?
The value was 4.69±0.65 ×10^5/cm^2.

And the “differentiation of Wolffian duct cells” value ([2]; immunostaining)?
Its value is “enhanced the Wolffian duct induction”.

What about the “number of GATA3^+ (Wolffian duct) cells” value [2] of the same molecule?
Its value is “increased the number of GATA3^+ cells”.

B2: GDNF: glial cell line-derived neurotrophic factor (R&D Systems) (protein, UniProt P39905 78-211, looked up)
Glial cell line-derived …: SPDKQMAVLPRRERNRQAAAANPENSRGKGRRGQRGKNRGCVLTAIHLNVTDLGLGYETKEELIFRYCSGSCDAAETTYDKILKNLSRNRRLVSDKVGQACCRPIAFDDDLSFLDDNLVYHILRKHSAKRCGCI
Which “Total cell numbers after treatment” value [2] does the source give for B2 here?
The value was 2.37±0.56 ×10^5/cm^2.

And the “number of GATA3^+ (Wolffian duct) cells” value [2]?
Its value is “increased the number of GATA3^+ Wolffian duct cells”.

B3: BMP4: bone morphogenetic protein (BMP)4 (PeproTech) (protein, UniProt P12644 293-408, looked up)
Bone morphogenetic protein 4: SPKHHSQRARKKNKNCRRHSLYVDFSDVGWNDWIVAPPGYQAFYCHGDCPFPLADHLNSTNHAIVQTLVNSVNSSIPKACCVPTELSAISMLYLDEYDKVVLKNYQEMVVEGCGCR
How did the “induction rates of GATA3^+ cells” value ([1]; FIG. 1H, 10 ng/ml BMP4 at APS induction stage, 0.1 μM LDN193189 at anterior IM induction stage, mean±s.d., n=4) turn out when B3 was run?
The value was 69.1±13.9%.

What about the “effect on induction efficiency / differentiation of OSR1^+GATA3^+ cells” value [1] of the same molecule?
The value was “inhibited the differentiation”.

And the “OSR1^+GATA3^+ cell induction rate” value ([1]; added to the anterior primitive streak induction stage)?
Its value is “around 70 % of the total cells obtained”.

And the “effect on OSR1^+GATA3^+ cell induction” value ([1]; added to the anterior primitive streak induction stage, 10 ng/ml BMP4, immunostaining)?
Its value is “facilitated the OSR1^+GATA3^+ cell induction”.

What about the “differentiation of Wolffian duct cells” value ([2]; immunostaining) of the same molecule?
The value was “suppressed Wolffian duct differentiation; also recorded: inhibited the differentiation of Wolffian duct cells”.
